Results published in patent US20260224588A1, “BENZODIAZEPINONE-DERIVED INHIBITORS OF EGFR AND HER2” (The Research Foundation for the State University of New York, priority 2023, published 2026).

Columns and labels:
Assay in all cases: KINOMEscan
Type in all cases: binding
Settings in all cases: 1 μM of compound 4; read-out: POC
[1] = target: PIM1 (Homo sapiens, UniProt P11309)
[2] = target: T1, EGFR(S752-1759del) (Homo sapiens, UniProt P00533, DEL752-759)
T1 construct: purchased Eurofins DiscoverX (KINOMEscan service)

[3] = target: KIT (Homo sapiens, UniProt P10721)
[4] = target: DAPK2 (Homo sapiens, UniProt Q9UIK4)
[5] = target: T2, SRC (Homo sapiens, UniProt P12931)
T2 construct: purchased Eurofins DiscoverX (KINOMEscan service)
T2 sequence (P12931 whole entry): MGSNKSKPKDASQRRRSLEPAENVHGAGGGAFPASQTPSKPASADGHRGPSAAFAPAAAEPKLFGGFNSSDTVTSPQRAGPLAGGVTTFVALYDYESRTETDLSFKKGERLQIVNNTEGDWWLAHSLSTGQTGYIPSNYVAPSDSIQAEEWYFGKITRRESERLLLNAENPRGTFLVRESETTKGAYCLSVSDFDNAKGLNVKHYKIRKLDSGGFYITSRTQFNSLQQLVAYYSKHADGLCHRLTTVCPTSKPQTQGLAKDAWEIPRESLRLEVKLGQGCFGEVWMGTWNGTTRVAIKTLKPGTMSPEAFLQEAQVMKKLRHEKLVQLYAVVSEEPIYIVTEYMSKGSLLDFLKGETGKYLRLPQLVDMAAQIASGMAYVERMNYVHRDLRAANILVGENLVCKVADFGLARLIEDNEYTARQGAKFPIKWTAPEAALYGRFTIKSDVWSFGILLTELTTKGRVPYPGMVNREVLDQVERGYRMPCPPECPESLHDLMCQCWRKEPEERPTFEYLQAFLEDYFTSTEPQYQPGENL

[6] = target: BMPR1A (Homo sapiens, UniProt P36894)
[7] = target: T3, WNK1 (Homo sapiens, UniProt Q9H4A3)
T3 construct: purchased Eurofins DiscoverX

[8] = target: AKT3 (Homo sapiens, UniProt Q9Y243)
[9] = target: T4, WNK4 (Homo sapiens, UniProt Q96J92)
T4 construct: purchased Eurofins DiscoverX

[10] = target: T5, EPHA8 (Homo sapiens, UniProt P29322)
T5 construct: purchased Eurofins DiscoverX (KINOMEscan service)
T5 sequence (P29322 28-1005): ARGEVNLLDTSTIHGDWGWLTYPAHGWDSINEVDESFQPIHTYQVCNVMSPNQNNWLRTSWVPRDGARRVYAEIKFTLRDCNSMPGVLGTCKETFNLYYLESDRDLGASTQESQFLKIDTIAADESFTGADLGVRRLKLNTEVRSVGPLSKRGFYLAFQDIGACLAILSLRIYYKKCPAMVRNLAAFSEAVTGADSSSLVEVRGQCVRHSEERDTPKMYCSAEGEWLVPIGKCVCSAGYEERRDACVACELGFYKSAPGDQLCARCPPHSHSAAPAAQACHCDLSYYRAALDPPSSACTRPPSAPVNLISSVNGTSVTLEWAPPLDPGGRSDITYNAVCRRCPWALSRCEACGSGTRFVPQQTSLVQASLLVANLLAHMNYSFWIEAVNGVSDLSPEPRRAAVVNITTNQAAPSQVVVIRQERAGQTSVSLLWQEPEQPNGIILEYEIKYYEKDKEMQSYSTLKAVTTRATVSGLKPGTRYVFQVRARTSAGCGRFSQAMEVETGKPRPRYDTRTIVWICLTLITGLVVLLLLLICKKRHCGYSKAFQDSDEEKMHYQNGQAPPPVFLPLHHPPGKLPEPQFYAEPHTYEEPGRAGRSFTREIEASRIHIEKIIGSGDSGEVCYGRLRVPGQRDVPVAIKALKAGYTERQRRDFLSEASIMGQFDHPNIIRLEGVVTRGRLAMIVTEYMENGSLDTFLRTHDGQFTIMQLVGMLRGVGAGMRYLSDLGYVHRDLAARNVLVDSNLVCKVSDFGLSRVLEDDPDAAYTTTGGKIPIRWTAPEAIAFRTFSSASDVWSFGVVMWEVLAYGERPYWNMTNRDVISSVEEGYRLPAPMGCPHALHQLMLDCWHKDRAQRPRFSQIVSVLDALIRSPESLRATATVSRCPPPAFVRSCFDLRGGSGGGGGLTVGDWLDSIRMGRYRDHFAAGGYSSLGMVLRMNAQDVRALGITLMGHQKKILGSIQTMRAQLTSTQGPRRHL

[11] = target: T6, SIK (Homo sapiens, UniProt P57059)
T6 construct: purchased Eurofins DiscoverX (KINOMEscan service)
T6 sequence (P57059 whole entry): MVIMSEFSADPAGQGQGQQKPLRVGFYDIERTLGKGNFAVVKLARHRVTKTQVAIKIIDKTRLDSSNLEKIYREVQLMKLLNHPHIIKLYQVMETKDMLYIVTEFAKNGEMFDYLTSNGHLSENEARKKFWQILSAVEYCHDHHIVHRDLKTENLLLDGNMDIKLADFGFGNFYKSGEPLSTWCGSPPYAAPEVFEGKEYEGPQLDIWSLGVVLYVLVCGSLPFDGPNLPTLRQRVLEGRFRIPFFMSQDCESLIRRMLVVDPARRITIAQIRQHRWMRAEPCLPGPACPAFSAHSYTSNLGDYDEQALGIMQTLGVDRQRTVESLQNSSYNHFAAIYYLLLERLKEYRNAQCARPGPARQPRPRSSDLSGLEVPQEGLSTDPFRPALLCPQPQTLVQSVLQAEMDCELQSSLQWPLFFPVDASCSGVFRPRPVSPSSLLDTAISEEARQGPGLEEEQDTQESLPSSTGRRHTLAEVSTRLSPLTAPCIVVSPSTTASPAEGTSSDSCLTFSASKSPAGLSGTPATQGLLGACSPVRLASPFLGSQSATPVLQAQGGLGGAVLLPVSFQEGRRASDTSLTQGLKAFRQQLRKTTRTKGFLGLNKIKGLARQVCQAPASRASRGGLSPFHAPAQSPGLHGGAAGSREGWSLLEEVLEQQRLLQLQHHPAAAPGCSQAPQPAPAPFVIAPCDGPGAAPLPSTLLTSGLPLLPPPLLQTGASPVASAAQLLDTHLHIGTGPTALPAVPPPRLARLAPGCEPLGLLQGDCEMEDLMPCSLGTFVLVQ

[12] = target: PRKCI (Homo sapiens, UniProt P41743)
[13] = target: T7, TNK2 (Homo sapiens, UniProt Q07912)
T7 construct: purchased Eurofins DiscoverX Corporation

[14] = target: ICK (Homo sapiens, UniProt Q9UPZ9)
[15] = target: PLK2 (Homo sapiens, UniProt Q9NYY3)
Chain of PLK2 (Q9NYY3 whole entry): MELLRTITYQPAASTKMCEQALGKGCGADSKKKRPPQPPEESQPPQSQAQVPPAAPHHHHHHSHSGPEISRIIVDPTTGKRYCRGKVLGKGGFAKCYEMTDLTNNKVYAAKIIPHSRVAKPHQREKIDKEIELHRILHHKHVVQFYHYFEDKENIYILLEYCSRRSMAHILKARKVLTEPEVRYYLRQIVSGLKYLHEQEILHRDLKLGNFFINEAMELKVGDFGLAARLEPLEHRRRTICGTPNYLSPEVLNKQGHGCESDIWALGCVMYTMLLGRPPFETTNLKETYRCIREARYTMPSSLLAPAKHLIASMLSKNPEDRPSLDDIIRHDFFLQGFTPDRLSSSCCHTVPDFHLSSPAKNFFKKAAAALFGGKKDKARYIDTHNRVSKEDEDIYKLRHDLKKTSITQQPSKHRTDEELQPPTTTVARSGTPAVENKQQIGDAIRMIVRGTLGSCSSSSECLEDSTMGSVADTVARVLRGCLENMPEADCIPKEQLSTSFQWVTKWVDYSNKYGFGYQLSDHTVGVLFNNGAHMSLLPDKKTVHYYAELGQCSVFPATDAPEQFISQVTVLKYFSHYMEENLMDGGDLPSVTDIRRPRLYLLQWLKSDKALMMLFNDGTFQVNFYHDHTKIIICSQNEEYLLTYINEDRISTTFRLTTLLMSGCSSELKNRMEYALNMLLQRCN

[16] = target: MET(Y1235D) (Homo sapiens, UniProt P08581, Y1235D)
[17] = target: LKB1 (Homo sapiens, UniProt Q15831)
[18] = target: T8, STK33 (Homo sapiens, UniProt Q9BYT3)
T8 construct: purchased Eurofins DiscoverX (KINOMEscan service)

[19] = target: PIK3CA(C420R) (Homo sapiens, UniProt P42336, C420R)
[20] = target: T9, ERK1 (Homo sapiens, UniProt P27361)
T9 construct: purchased Eurofins DiscoverX Corporation
T9 sequence (P27361 whole entry): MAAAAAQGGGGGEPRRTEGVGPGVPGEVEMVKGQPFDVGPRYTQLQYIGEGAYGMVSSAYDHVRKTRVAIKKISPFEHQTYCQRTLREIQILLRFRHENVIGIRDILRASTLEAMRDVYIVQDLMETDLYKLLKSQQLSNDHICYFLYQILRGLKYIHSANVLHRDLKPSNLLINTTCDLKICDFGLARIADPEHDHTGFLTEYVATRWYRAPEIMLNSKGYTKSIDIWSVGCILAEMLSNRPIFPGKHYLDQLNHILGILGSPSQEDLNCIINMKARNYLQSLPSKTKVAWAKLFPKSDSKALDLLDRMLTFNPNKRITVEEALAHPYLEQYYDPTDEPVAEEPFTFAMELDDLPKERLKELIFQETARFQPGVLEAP

[21] = target: T10, ABL1(H396P)-nonphosphorylated (Homo sapiens, UniProt P00519, H396P)
T10 construct: purchased Eurofins DiscoverX Corporation

[22] = target: T11, TEC (Homo sapiens, UniProt P42680)
T11 construct: purchased Eurofins DiscoverX Corporation
T11 sequence (P42680 whole entry): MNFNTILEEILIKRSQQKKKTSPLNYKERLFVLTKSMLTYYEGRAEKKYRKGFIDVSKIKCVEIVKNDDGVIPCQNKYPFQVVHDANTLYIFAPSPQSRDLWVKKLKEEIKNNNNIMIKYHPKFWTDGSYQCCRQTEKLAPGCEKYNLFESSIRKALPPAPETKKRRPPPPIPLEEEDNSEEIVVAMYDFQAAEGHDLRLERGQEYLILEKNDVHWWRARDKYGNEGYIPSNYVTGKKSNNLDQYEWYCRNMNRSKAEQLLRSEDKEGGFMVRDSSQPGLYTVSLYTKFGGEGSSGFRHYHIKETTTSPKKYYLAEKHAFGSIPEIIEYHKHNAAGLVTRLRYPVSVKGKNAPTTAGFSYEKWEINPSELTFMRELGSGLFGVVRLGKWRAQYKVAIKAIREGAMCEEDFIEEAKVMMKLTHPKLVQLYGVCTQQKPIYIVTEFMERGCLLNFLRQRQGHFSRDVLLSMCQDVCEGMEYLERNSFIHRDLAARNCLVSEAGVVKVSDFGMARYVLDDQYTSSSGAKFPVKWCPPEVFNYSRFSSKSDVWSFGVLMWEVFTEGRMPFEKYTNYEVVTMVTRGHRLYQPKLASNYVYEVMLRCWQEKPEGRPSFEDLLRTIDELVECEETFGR

[23] = target: CAMK1G (Homo sapiens, UniProt Q96NX5)
[24] = target: T12, RIPK1 (Homo sapiens, UniProt Q13546)
T12 construct: purchased Eurofins DiscoverX Corporation (KINOMEscan screening service)

[25] = target: PRKX (Homo sapiens, UniProt P51817)
[26] = target: CSF1R (Homo sapiens, UniProt P07333)
Chain of CSF1R (P07333 20-972): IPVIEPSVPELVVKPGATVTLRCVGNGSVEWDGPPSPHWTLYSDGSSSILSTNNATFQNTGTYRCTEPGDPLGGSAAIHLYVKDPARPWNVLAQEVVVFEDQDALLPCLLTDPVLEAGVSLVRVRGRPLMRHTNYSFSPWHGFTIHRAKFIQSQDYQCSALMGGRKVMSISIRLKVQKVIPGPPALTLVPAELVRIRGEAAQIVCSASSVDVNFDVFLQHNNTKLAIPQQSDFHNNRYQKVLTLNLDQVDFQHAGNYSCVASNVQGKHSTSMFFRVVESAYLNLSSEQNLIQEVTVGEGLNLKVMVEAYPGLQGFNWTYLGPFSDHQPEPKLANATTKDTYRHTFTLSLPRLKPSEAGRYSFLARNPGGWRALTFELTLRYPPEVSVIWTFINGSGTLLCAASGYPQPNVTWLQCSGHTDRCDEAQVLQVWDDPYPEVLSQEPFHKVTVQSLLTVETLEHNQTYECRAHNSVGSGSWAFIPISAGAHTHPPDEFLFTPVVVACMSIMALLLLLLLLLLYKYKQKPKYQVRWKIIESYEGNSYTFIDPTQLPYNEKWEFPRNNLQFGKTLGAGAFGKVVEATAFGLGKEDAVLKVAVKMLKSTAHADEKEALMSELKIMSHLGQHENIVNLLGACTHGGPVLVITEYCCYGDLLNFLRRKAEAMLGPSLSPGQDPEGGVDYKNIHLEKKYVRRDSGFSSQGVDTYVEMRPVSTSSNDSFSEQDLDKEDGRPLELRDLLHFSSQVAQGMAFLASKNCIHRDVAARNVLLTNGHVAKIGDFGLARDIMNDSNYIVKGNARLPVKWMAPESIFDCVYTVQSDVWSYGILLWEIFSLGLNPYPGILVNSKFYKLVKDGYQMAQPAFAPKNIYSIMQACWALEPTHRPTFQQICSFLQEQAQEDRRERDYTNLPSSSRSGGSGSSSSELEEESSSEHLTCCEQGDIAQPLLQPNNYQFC

[27] = target: T13, RIOK1 (Homo sapiens, UniProt Q9BRS2)
T13 construct: purchased Eurofins DiscoverX Corporation (KINOMEscan screening service)

[28] = target: CDK4-cyclinD3 (Homo sapiens, UniProt P11802)
[29] = target: DYRK1A (Homo sapiens, UniProt Q13627)
[30] = target: MAST1 (Homo sapiens, UniProt Q9Y2H9)
[31] = target: T14, RPS6KA5(Kin.Dom.1-N-terminal) (Homo sapiens, UniProt O75582)
T14 construct: RPS6KA5(Kin.Dom.1-N-terminal); purchased Eurofins DiscoverX Corporation (KINOMEscan screening service)

[32] = target: T15, TGFBR1 (Homo sapiens, UniProt P36897)
T15 construct: purchased Eurofins DiscoverX Corporation

[33] = target: T16, ERK8 (Homo sapiens, UniProt Q8TD08)
T16 construct: purchased Eurofins DiscoverX Corporation

[34] = target: AURKB (Homo sapiens, UniProt Q96GD4)
[35] = target: ALK(L1196M) (Homo sapiens, UniProt Q9UM73, L1196M)
[36] = target: T17, EPHA3 (Homo sapiens, UniProt P29320)
T17 construct: purchased Eurofins DiscoverX (KINOMEscan service)

[37] = target: T18, ERK4 (Homo sapiens, UniProt P31152)
T18 construct: purchased Eurofins DiscoverX Corporation

[38] = target: PKNB(M. tuberculosis) (Mycobacterium tuberculosis, UniProt P9WI81)

`C=CC(=O)Nc1ccc(OC)c(Nc2cc(-c3[nH]c(CC)nc3-c3cccc(NC(=O)c4cccc5c4NC(=O)c4ccccc4N5)c3)ccn2)c1` [Compound 4, N-(3-(5-(2-((5-Acrylamido-2-methoxyphenyl)amino)pyridin-4-yl)-2-ethyl-1H-imidazol-4-yl)phenyl)-11-oxo-10,11-dihydro-5H-dibenzo[b,e][1,4]diazepine-9-carboxamide] gave a remaining binding at 1 µM [1] of 94%, a remaining binding at 1 µM [2] of 6% and a remaining binding at 1 µM [3] of 100%. For the same compound, the remaining binding at 1 µM [4] was 100%, the remaining binding at 1 µM [5] was 73% and the remaining binding at 1 µM [6] was 85%. The remaining binding at 1 µM [7] was 100%, the remaining binding at 1 µM [8] was 100% and the remaining binding at 1 µM [9] was 85%. For the same compound, the remaining binding at 1 µM [10] was 98%, the remaining binding at 1 µM [11] was 100% and the remaining binding at 1 µM [12] was 100%. For the same compound, the remaining binding at 1 µM [13] was 3.8%, the remaining binding at 1 µM [14] was 100% and the remaining binding at 1 µM [15] was 100%. It also gave a remaining binding at 1 µM [16] of 97%, a remaining binding at 1 µM [17] of 100% and a remaining binding at 1 µM [18] of 100%. The remaining binding at 1 µM [19] was 66%, the remaining binding at 1 µM [20] was 99% and the remaining binding at 1 µM [21] was 97%. It also gave a remaining binding at 1 µM [22] of 45%, a remaining binding at 1 µM [23] of 100% and a remaining binding at 1 µM [24] of 100%. For the same compound, the remaining binding at 1 µM [25] was 100%, the remaining binding at 1 µM [26] was 100% and the remaining binding at 1 µM [27] was 100%. The remaining binding at 1 µM [28] was 49%, the remaining binding at 1 µM [29] was 100% and the remaining binding at 1 µM [30] was 100%. The remaining binding at 1 µM [31] was 83%, the remaining binding at 1 µM [32] was 75% and the remaining binding at 1 µM [33] was 100%. The remaining binding at 1 µM [34] was 100%, the remaining binding at 1 µM [35] was 89% and the remaining binding at 1 µM [36] was 81%. It also gave a remaining binding at 1 µM [37] of 100% and a remaining binding at 1 µM [38] of 97%.
